# Columns and labels:
# [1] = system: multiple myeloma (MM) cells; assay: (3H)-thymidine incorporation assay of MM cell lines; type: cell-based; conditions: POM 3 days
# Method: FIG. 1A-1F. Down regulation of UHRF1 transcription by IMiDs correlates with drug sensitivity of multiple myeloma. (1A) Volcano plot of protein expression changes determined by mass spectrometry in H929 cells at 24 hr of treatment with CC-220 (0.1 μM) or DMSO control. X axis, Log2fold change (FC); Y axis, significance,-log 10 [p-value]. […] (1B) Volcano plot of gene expression changes determined by Affymetrix microarray in H929 cells treated with POM (1 μM) or DMSO for 24 hr. X axis, Log2fold change (FC); Y axis, significance,-log 10 [p-value], n=2 technical replicates). […] (1C) Western blot analysis protein expression of UHRF1, Ikaros, Aiolos and ZFP91 in H929 cells treated with 1 μM POM for indicated time. (1D) qRT-PCR analysis of UHRF1 gene expression levels in cells as in (1C). Error bars represent the SEM from duplicate measurements. (1E) Western blot analysis protein expression of UHRF1 and indicated proteins in MM cells treated with DMSO (−) or 1 μM POM (+) for 3 days. GAPDH serves as a loading control. (1F) Thymidine incorporation of various MM cell lines treated with indicated dose of POM for 3 days. Error bars represent the SEM from technical replicates.
# (3H)-thymidine incorporation assay was performed as previously described (PMID: 23252516) with minor modifications. Briefly, 1×10^4 or 2×10^5 multiple myeloma (MM) cells were cultured in 96-well culture plates in complete media with the indicated concentration of pomalidomide (POM) or DMSO control for 3 days. 37 kBg (3H)-thymidine was added to each will at the final 6 hour of incubation.
# H3 and H3K27ac = assay: Western blot of global histone H3 and H3K27ac levels; type: cell-based; conditions: H929 and MM1.S cells, 1 μM POM, 24 hr
# Method: FIG. 7A-7B. UHRF1 expression is positively regulated by Ikaros, Aiolos and ZFP91 in MM1.S cells. (7A) Western blot analysis protein expression of UHRF1, Ikaro and Aiolos in stably transduced MM1.S cells after Dox induction (0, 20, or 50 ng/ml) for 3 days of non-target shRNA (shNT) or shRNAs targeting Ikaros (shIKZF1) or Aiolos (shIKZF3). (7B) Western blot analysis histone H3 and H3K27ac levels from H929 and MM1.S cells treated with DMSO or 1 μM POM for 24 hr.
# Cells were lysed with cell lysis buffer (50 mM TrisHCl pH7.4, 250 mM NaCl, 0.5% Triton X100, 10% glycerol) supplemented with protease inhibitor cocktail. Cell lysates were subjected to sonication to breakdown nuclei and reduce viscosity caused by released genomic DNA. The protein concentration was measured by a Bradford Protein Assay (Bio-Rad). Samples were mixed with SDS sample buffer at 95° C. for 5 minutes. Whole cell lysates were resolved on NuPAGE™ 4-12% Bis-Tris Midi Protein Gels (Invitrogen) and transferred onto nitrocellulose membranes, which were then subjected to blocking in Intercept (TBS) Blocking Buffer (LI-COR). Proteins of interested were detected incubation with primary antibodies listed below at 4° C. overnight. Then the membrane was incubated with either IRDye 680RD goat anti-Mouse IgG (H+L) or IRDye 800CW goat anti-Rabbit IgG (H+L) (1:10,000; LI-COR). Bends were visualized by Odyssey Imaging System (LI-COR).
smiles,measurement,setting,value
"Nc1cccc2c1C(=O)N(C1CCC(=O)NC1=O)C2=O (centres unmarked) [POM, pomalidomide]",drug sensitivity of cell lines,"[1]; H929, MM1.S, DF15 and U266",sensitive
same,drug sensitivity of cell lines,[1]; H929 PR and DF15 PR (diminished cereblon expression),acquired resistance
same,drug sensitivity of cell line,[1]; MC/CAR,less sensitive
same,drug sensitivity of cell line,[1]; RPMI 8226,intrinsically resistant
same,global levels of H3 and H3K27ac,H3 and H3K27ac,not affected

# From patent publication US20260234630A1, “Methods for Treating Multiple Myeloma” (Celgene Corporation, priority 2022, published 2026)
